Measured values taken from ChEMBL document CHEMBL4411286, “Discovery of new potent hits against intracellular Trypanosoma cruzi by QSAR-based virtual screening” (Eur J Med Chem, 2019).
pEC50: −log10 of the molar value.

Key:
[1] = Cytotoxicity against human U2OS cells assessed as reduction in cell viability after 96 hrs; assay type: cell-based
Trypanosoma cruzi = experiment: Antimicrobial activity against Trypanosoma cruzi Y infected in human U2OS cells after 96 hrs by HCS assay; assay type: functional, organism-based; details: for pEC50: read-out: EC50; for EC50: read-out: pEC50 (converted)
[2] = Selectivity index, ratio of CC50 for human U2OS cells to EC50 for Trypanosoma cruzi Y infected in human U2OS cells; assay type: toxicity, cell-based; details: read-out: Ratio CC50/EC50

SMILES	CC50 at 96 h ([1]; read-out: CC50)	pEC50 (Trypanosoma cruzi)	selectivity ratio [2]	EC50 (Trypanosoma cruzi)	CC50 at 96 h ([1]; read-out: pCC50 (converted))
Oc1ccccc1-c1n[nH]c(-c2ccccn2)n1	> 200 µM	< 3.70	–	–	–
CC1Cc2ccccc2N1C(=O)CSc1nnnn1-c1ccccc1 (centres undefined)	> 200 µM	3.96	> 1.8	110 µM	–
Clc1ccc(Cc2nn3c(CN4CCN(c5ccccc5)CC4)nnc3s2)cc1	> 200 µM	< 3.70	–	–	–
CC(=O)Nc1ccc(Cl)c(C(=O)NC(Cn2ccnc2)c2ccccc2)c1 (centres undefined)	> 200 µM	5.57	> 72.8	–	–
CC(C)COc1ccc(CN(Cc2ccncc2)S(=O)(=O)c2ccc(F)cc2F)cc1	> 200 µM	6.15	> 274	0.724 µM	200 µM
COc1ccc(C2CC(=O)C3=C(C2)NC(C)=C(C(=O)OCCc2ccccc2)C3c2ccncc2)cc1 (centres undefined)	19.3 µM	6.40	46.5	0.417 µM	–
O=C(COc1ccc(-c2ccccc2)cc1)N1CCN(S(=O)(=O)c2ccc(F)cc2)CC1	> 200 µM	< 3.70	–	> 200 µM	200 µM
c1cncc(-c2nc(-c3cnccn3)n[nH]2)c1	1.5 µM	5.47	0.4	–	–
O=C(CC(Nc1ccc2ccccc2c1)c1ccncc1)c1ccc(Br)cc1 (centres undefined)	> 200 µM	6.10	> 258	–	–
Cc1ccccc1-c1noc(-c2cccnc2)n1	> 200 µM	4.73	> 10.8	18.6 µM	–
Cc1ccc(-c2csc(-c3cccnc3)n2)cc1C	40.8 µM	5.57	15.1	2.69 µM	–
Clc1ccc(-c2csc(-c3cccnc3)n2)cc1	> 200 µM	5.38	> 48	4.17 µM	–
COc1ccc(S(=O)(=O)N(Cc2ccncc2)Cc2ccc(OCC(C)C)cc2)cc1OC	21.7 µM	6.30	45.7	0.479 µM	21.9 µM
CC(C)COc1ccc(CN(Cc2ccncc2)S(=O)(=O)c2ccc(F)c(F)c2)cc1	11.5 µM	6.40	30.6	0.38 µM	11.5 µM
Cc1nccn1-c1ccc(Cn2ccnc2-c2cc3ccccc3[nH]c2=O)cc1	52.9 µM	5.92	43.9	–	–
Cc1nnc(SCC(=O)N2c3ccccc3CC2C)n1-c1ccccc1 (centres undefined)	155 µM	4.43	4.2	37.2 µM	–
Cc1nnc(-c2cccc(-c3ccnc4[nH]ccc34)c2)s1	127 µM	< 3.70	< 0.6	–	–
Nc1ncc(-c2nc(-c3cccnn3)no2)c(-c2ccccc2)n1	99.7 µM	< 3.70	< 0.5	–	–
Cn1c(SCC(=O)N2CCN(c3ccccc3F)CC2)nnc1-c1cccnc1	198 µM	< 3.70	< 1	> 200 µM	–
N#Cc1ccc(-c2ccc(OCC(=O)N3CCN(c4cccc(Cl)c4)CC3)cc2)cc1	> 200 µM	< 3.70	–	–	–

SMILES	CC50 at 96 h ([1]; read-out: CC50)	pEC50 (Trypanosoma cruzi)	selectivity ratio [2]	EC50 (Trypanosoma cruzi)	CC50 at 96 h ([1]; read-out: pCC50 (converted))
O=C(NC(Cn1ccnc1)c1ccccc1)c1csc(-c2cccs2)n1 (centres undefined)	> 200 µM	< 3.70	–	> 200 µM	200 µM
O=C(CSc1nc(-c2ccncc2)n[nH]1)N1CCN(c2ccccc2)CC1	> 200 µM	4.70	> 9.9	20 µM	–
CC1=C(C(=O)OCCc2ccccc2)C(c2ccncc2)C2=C(CC(c3ccccc3)CC2=O)N1 (centres undefined)	> 200 µM	< 3.70	–	> 200 µM	–
COc1ccc(N2CCN(C(=O)CN(Cc3ccccc3C)S(=O)(=O)c3ccc(Cl)cc3)CC2)cc1	73.9 µM	5.57	27.7	2.69 µM	74.1 µM
Cn1c(SCC(=O)N2CCN(c3ccccc3)CC2)nnc1-c1ccc(Br)cc1	> 200 µM	< 3.70	–	> 200 µM	–
COc1cccc(-c2noc(-c3cccnc3)n2)c1	106 µM	4.07	1.2	85.1 µM	–
O=C(NC(Cn1ccnc1)c1ccccc1)c1ccc(-n2cnnn2)cc1 (centres undefined)	33.6 µM	6.52	137	0.257 µM	35.5 µM
Cc1ccc(N2C(=O)C(CC(=O)Nc3ccccc3)N(Cc3cccnc3)C2=O)cc1 (centres undefined)	> 200 µM	3.72	> 1	–	–
Cc1ccc(-n2c(SCC(=O)N3CCN(c4ccccc4)CC3)nnc2-c2ccncc2)cc1Cl	21.1 µM	5.15	3	6.92 µM	–
COc1ccc(N2CCN(C(=O)COc3ccc(C4CCCCC4)cc3)CC2)c([N+](=O)[O-])c1	49.6 µM	4.42	1.3	–	–
CC(Oc1ccc(-c2ccccc2)cc1)C(=O)Nc1ccc(S(=O)(=O)Nc2nccs2)cc1 (centres undefined)	> 200 µM	< 3.70	–	–	–
c1cncc(-c2nc(-c3cccs3)no2)c1	66.3 µM	< 3.70	< 0.3	> 200 µM	–
Cc1ncsc1CCC(=O)NC(Cn1ccnc1)c1ccccc1 (centres undefined)	> 200 µM	< 3.70	–	–	–
O=C(N/C(=C/c1cccnc1)c1nc2ccccc2[nH]1)c1cccc(Br)c1	47.4 µM	4.72	2.5	–	–
O=C(Cn1ccnc1[N+](=O)[O-])NCc1ccccc1 [BENZNIDAZOLE]	> 200 µM	5.51	> 128	–	–
COc1ccc2c(c1)cc(C(=O)NC(Cn1ccnc1)c1ccccc1)n2C (centres undefined)	0.62 µM	4.88	–	13.2 µM	0.617 µM
O=C(NC(Cn1ccnc1)c1ccccc1)c1cccc(-n2cccn2)c1 (centres undefined)	11.8 µM	6.52	46.3	0.257 µM	11.7 µM
C=CCSc1nc(-c2ccc(OC)cc2)n[nH]1	195 µM	3.83	1.3	–	–
CC(C)COc1ccc(CN(Cc2ccncc2)S(=O)(=O)c2cccc(F)c2)cc1	> 200 µM	< 3.70	–	> 200 µM	200 µM
